test: Antiproliferative activity against human MDR1 transfected mouse L5178Y cell line

Question: With COc1ccc(CCN(C)CCN2C(=O)C3C4c5ccccc5C(c5ccccc54)C3C2=O)cc1OC (stereo not drawn) as the compound, how does the IC50 read?
Answer: Its IC50 is 4.23 µM.

Question: For COc1ccc(CCN(C)CC#CCN2C(=O)C3C4c5ccccc5C(c5ccccc54)C3C2=O)cc1OC (stereo not drawn), which IC50 is on record?
Answer: Its IC50 is 2.55 µM.

Question: With COc1ccc(CCN(C)CCCN2C(=O)C3C4c5ccccc5C(c5ccccc54)C3C2=O)cc1OC (stereo not drawn) as the compound, how does the IC50 read?
Answer: The IC50 was 5.72 µM.

Source: BindingDB's records for doi:10.1021/jm060056p (University of Bologna, 2006)
